What was measured:
PAI-1 expression = experiment: TGF-β1-induced PAI-1 expression, Northern blot, NRK cells; assay type: cell-based, rat; settings: 50 μg/ml, TGF-β1 2 to 100 pM
Method: (A, B, C, D, E, F) Cells were treated with 50 μg/ml cholesterol (A, B, C, D) and 50 μg/ml LDL (D) at 37° C. for 1 hr or with 1 μM fluvastatin or lovastatin (E) or several concentrations of fluvastatin (F) at 37° C. for 16 hr and then further incubated with increasing concentrations (as indicated) of TGF-β1 (A, B, C, E) or 50 pM TGF-β1 (D,F) for 2 hr. Northern blot analysis of PAI-1 and G3PDH was performed. A representative of a total of three analyses is shown (a). The relative intensities of the transcripts were quantified with a PhosphoImager. The ratio of the relative intensities of PAI-1 and G3PDH transcripts in cells treated without TGF-β1 and cholesterol, LDL or statins on the blot was taken as 1 fold or 100% of PAI-1 expression. The quantitative data from three independent analyses is shown (b). […] (G) Mv1Lu cells stably expressing a luciferase reporter gene driven by the PAI-1 promoter (MLECs-clone 32) were treated with increasing concentrations (as indicated) of cholesterol at 37 EC for 1 hr (a) or with 1 μM lovastatin at 37° C. for 16 hr (b) and then further incubated with 50 pM TGF-β for 7 hr. The luciferase activity in cells treated without cholesterol was taken as 100% (a). […] (H) Cells were incubated with 0.0625 and 0.125 pM TGF-β1 in the presence of increasing concentrations of cholesterol, as indicated. […] The experiments were carried out in triplicate.

TβR-II = experiment: TGF-β1-induced degradation of TβR-II, Western blot; assay type: cell-based
Method: (E) Cells were treated with several concentrations of cholesterol (a,b) or LDL (c,d) as indicated in the presence and absence of 1% β-CD at 37° C. for 1 hr and further incubated with 50 pM TGF-β for 1 hr. The cell lysates were then subjected to 7.5% SDS-PAGE and Western blot analysis using antibodies to TβR-II and α-actin (a,c). The relative intensities of TβR-II and α-actin on the blot were quantified by densitometry (b,d). The ratio of the relative intensities of TβR-II and α-actin in cells treated without TGF-β1 was taken as the 100% level of TβR-II.
(F, G) Cells were treated with or without 1 μM lovastatin/fluvastatin or nystatin (25 μg/ml)/cholesterol (50 μg/ml) at 37° C. for 16 hr or 1 hr, respectively. The treated cells were directly analyzed by sucrose density gradient ultracentrifugation analysis (F) or further incubated with 50 pM TGF-β at 37° C. for several time periods as indicated (G). Western blot analysis of the sucrose density gradient fractions (F) and of TGF-β1-treated cell lysates (G) was performed using antibody to TβR-II. The relative levels of TβR-II and α-actin were quantified by densitometry. Fractions ⅘ and 7 represent lipid raft/caveolae and non-lipid raft fractions, respectively. […] The quantitative data from three independent analyses is shown (G, bottom). […]
Cells grown to near confluence on 12-well cluster dishes were treated with cholesterol or LDL in serum-free DMEM (vol.=0.5 ml/well) at 37° C. for 1 hr. […] Treated cells were lysed and cell lysates were analyzed by 7.5% SDS-PAGE and Western blot analysis using anti-Smad2, anti-P-Smad2, anti-caveolin-1, anti-TβR-I (alk5) or anti-TβR-II antibodies as described previously (30). […]
Lipid raft/caveolae-mediated endocytosis of receptor-bound TGF-β results in rapid degradation of TGF-β1 and suppression of TGF-β responsiveness. […] To test this, we analyzed the lipid raft/caveolae and non-lipid raft localization of TβR-I and TβR-II in the plasma membrane of cells treated with or without cholesterol (50 μg/ml) using sucrose density gradient ultracentrifugation analysis. […]

CC(C)CCC[C@@H](C)[C@H]1CC[C@H]2[C@@H]3CC=C4C[C@@H](O)CC[C@]4(C)[C@H]3CC[C@]12C [cholesterol]
suppression of TGF-β1-stimulated PAI-1 expression (PAI-1 expression): 60-65%
TβR-II degradation, treatment alone (TβR-II; cholesterol 10 μg/ml or LDL 15 μg protein/ml, without TGF-β1): did not induce
enhancement of TGF-β1-induced degradation of TβR-II (TβR-II; cholesterol 10 μg/ml, LDL 15 μg protein/ml, 1 hr, then 50 pM TGF-β 1 hr): 70%

From patent US8946201B2, “Methods for inhibiting TGF-β” (Saint Louis University, priority 2007, dated 2015)
